Measured values: the supplement of paper PMC8671470

How the values were obtained:
Settings in all cases: 72 h
HL-60 [1] = test: area under dose-response curve (viability, 1 nM-10 uM) (fraction (0-1)); higher = more sensitive
Outline: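 In 384-well plates, the full library was rescreened in duplicate on HL-60 cells in RPMI 1640 with 10% FBS, at 1–10,000 nM in five tenfold concentrations, for 72 h at 37 °C, 5% CO2. Each run also held DMSO or 100 nM of one of three metabolic inhibitors. Viability was measured by CellTiter-Glo and normalised to DMSO wells and to wells with proteasome inhibitor, present at 10 μM. Any area under the curve comes from four-parameter log-logistic fitting with drc and PharmacoGx.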

Mono-Mac-6 [2] = test system: Mono-Mac-6
Outline: (§1)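 For the IC50, dose–response curves were fitted with a log-logistic model. The data came from fifteen myeloid leukaemia cell lines grown in RPMI 1640 at densities in the linear growth range and incubated in 384-well plates for 72 h at 37 °C under 5% CO2. Doses were five tenfold steps from 1 to 10,000 nM in duplicate, and luminescent ATP viability was normalised to vehicle and to a positive control at 10 µM before four-parameter fitting.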

KU-812 [3] = test system: KU-812
Outline: as §1

BV-173 [4] = test system: BV-173
Outline: as §1

MV4-11 [5] = test system: MV4-11
Outline: as §1

KG-1 [6] = test system: KG-1
Outline: as §1

SHI-1 [7] = test system: SHI-1
Outline: as §1

LAMA-84 = test system: LAMA-84
Outline: as §1

HL-60 [8] = test system: HL-60
Outline: as §1

K-562 [9] = test system: K-562
Outline: as §1

KCL-22 [10] = test system: KCL-22
Outline: as §1

NOMO-1 [11] = test system: NOMO-1
Outline: as §1

HEL [12] = test system: HEL
Outline: as §1

MOLM-13 [13] = test system: MOLM-13
Outline: as §1

ML-2 [14] = test system: ML-2
Outline: as §1

THP-1 [15] = test system: THP-1
Outline: as §1

Mono-Mac-6 [16] = test: cell viability (% survival relative to DMSO control, bortezomib = 0%); higher = less cytotoxic
Outline: (§2)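 After 72 h at 37 °C with 5% CO2, cell viability in 384-well plates was measured by CellTiter-Glo luminescence. The plates held compounds pre-printed at 1, 10, 100, 1000 or 10000 nM in duplicate, and cells from 10 AML and 5 CML lines seeded at densities titrated to linear growth. Percent survival is the duplicate mean, normalised to vehicle as 100% and a 10 µM positive control as 0%.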

KU-812 [17] = test: as above
Outline: as §2

BV-173 [18] = test: as above
Outline: as §2

MV4-11 [19] = test: as above
Outline: as §2

KG-1 [20] = test: as above
Outline: as §2

SHI-1 [21] = test: as above
Outline: as §2

HL-60 [22] = test: as above
Outline: as §2

K-562 [23] = test: as above
Outline: as §2

KCL-22 [24] = test: as above
Outline: as §2

NOMO-1 [25] = test: as above
Outline: as §2

HEL [26] = test: as above
Outline: as §2

MOLM-13 [27] = test: as above
Outline: as §2

ML-2 [28] = test: as above
Outline: as §2

THP-1 [29] = test: as above
Outline: as §2

NS(=O)(=O)c1ccc([N+](=O)[O-])cc1 [4-Nitrobenzenesulfonamide]
Settings	area under dose-response curve, co-treatment: AZD3965 100 nM	area under dose-response curve, co-treatment: DMSO vehicle	area under dose-response curve, co-treatment: GSK2194069 100 nM	area under dose-response curve, co-treatment: pictilisib 100 nM	cell viability, 1 nM [%]	cell viability, 10 nM [%]	cell viability, 100 nM [%]	cell viability, 1000 nM [%]	cell viability, 10000 nM [%]
BV-173 [18]	–	–	–	–	101	95	105	97.8	86.1
HEL [26]	–	–	–	–	105	98.7	105	99.6	96.3
HL-60 [1]	< 0.0301	< 0.0301	< 0.0301	< 0.0301	–	–	–	–	–
HL-60 [22]	–	–	–	–	106	111	110	99.8	108
K-562 [23]	–	–	–	–	103	105	97.1	94.8	100
KCL-22 [24]	–	–	–	–	103	101	103	93.1	91.1
KG-1 [20]	–	–	–	–	107	101	92.4	96.1	92.3
KU-812 [17]	–	–	–	–	102	95.7	105	98.1	93
ML-2 [28]	–	–	–	–	103	111	97.3	102	89.6
MOLM-13 [27]	–	–	–	–	91.3	92.3	95.4	110	107
MV4-11 [19]	–	–	–	–	102	93.4	115	94.3	114
Mono-Mac-6 [16]	–	–	–	–	101	97.3	98.1	111	89.8
NOMO-1 [25]	–	–	–	–	101	105	98.5	103	98.3
SHI-1 [21]	–	–	–	–	102	90.7	102	100	93.8
THP-1 [29]	–	–	–	–	111	101	100	104	90.7

Settings	IC50 (cell viability) [µM]
BV-173 [4]	> 10
HEL [12]	> 10
HL-60 [8]	> 10
K-562 [9]	> 10
KCL-22 [10]	> 10
KG-1 [6]	> 10
KU-812 [3]	> 10
LAMA-84	> 10
ML-2 [14]	> 10
MOLM-13 [13]	> 10
MV4-11 [5]	> 10
Mono-Mac-6 [2]	> 10
NOMO-1 [11]	> 10
SHI-1 [7]	> 10
THP-1 [15]	> 10
